Results published in the NIST ThermoML archive (doi:10.1016/j.jct.2010.04.013).

Test: mn = molality of the nth substance listed, in mol/kg
Conditions: 101 kPa, Liquid; for mass density: Vibrating tube method; for speed of sound: Pulse-echo method

C[S+](C)[O-] [dimethyl sulfoxide] + [Ba+2].[O-][Cl+3]([O-])([O-])[O-].[O-][Cl+3]([O-])([O-])[O-]
m2 = 0
Conditions	mass density [kg/m3]
293.15 K	1100.21
298.15 K	1095.18
303.15 K	1090.16
313.15 K	1080.12
323.15 K	1070.08
333.15 K	1060.02

[Ca+2].[O-][Cl+3]([O-])([O-])[O-].[O-][Cl+3]([O-])([O-])[O-] [calcium diperchlorate] + C[S+](C)[O-]
Conditions	mass density, 293.15 K [kg/m3]	mass density, 298.15 K [kg/m3]	mass density, 303.15 K [kg/m3]	mass density, 313.15 K [kg/m3]	mass density, 323.15 K [kg/m3]	mass density, 333.15 K [kg/m3]	speed of sound, 298.15 K [m/s]
m1 = 0.01996	1103.64	1098.63	1093.62	1083.61	1073.6	1063.59	–
m1 = 0.02505	1104.52	1099.51	1094.5	1084.5	1074.49	1064.5	–
m1 = 0.03085	1105.52	1100.51	1095.51	1085.52	1075.52	1065.54	1486.8
m1 = 0.03807	1106.77	1101.77	1096.77	1086.78	1076.8	1066.82	1487.3
m1 = 0.0488	1108.62	1103.63	1098.64	1088.67	1078.7	1068.74	1488.2
m1 = 0.06089	1110.72	1105.73	1100.74	1090.8	1080.86	1070.91	1489.3
m1 = 0.07827	1113.74	1108.77	1103.81	1093.88	1083.96	1074.05	1490.8
m1 = 0.1006	1117.66	1112.7	1107.75	1097.85	1087.97	1078.08	1492.6
m1 = 0.1214	1121.33	1116.39	1111.45	1101.58	1091.73	1081.88	1494.5
m1 = 0.1417	1124.92	1119.99	1115.06	1105.22	1095.39	1085.57	1496.2
m1 = 0.1651	1129.07	1124.16	1119.25	1109.44	1099.65	1089.87	1498.2
m1 = 0.1858	1132.79	1127.88	1122.99	1113.2	1103.45	1093.69	1500.1

[Ba+2].[O-][Cl+3]([O-])([O-])[O-].[O-][Cl+3]([O-])([O-])[O-] [barium perchlorate] + C[S+](C)[O-]
Conditions	mass density, 293.15 K [kg/m3]	mass density, 298.15 K [kg/m3]	mass density, 303.15 K [kg/m3]	mass density, 313.15 K [kg/m3]	mass density, 323.15 K [kg/m3]	mass density, 333.15 K [kg/m3]	speed of sound, 298.15 K [m/s]
m1 = 0.03102	1108.57	1103.55	1098.53	1088.51	1078.49	1068.47	–
m1 = 0.04247	1111.68	1106.66	1101.64	1091.63	1081.62	1071.61	1485.2
m1 = 0.05458	1114.98	1109.97	1104.95	1094.94	1084.94	1074.94	1485.5
m1 = 0.06931	1119.03	1114.02	1109	1099	1089.01	1079.01	1486
m1 = 0.08432	1123.18	1118.17	1113.16	1103.17	1093.18	1083.2	1486.3
m1 = 0.1063	1129.31	1124.31	1119.3	1109.32	1099.34	1089.37	1486.8
m1 = 0.1359	1137.67	1132.66	1127.67	1117.69	1107.73	1097.78	1487.8
m1 = 0.1651	1146.06	1141.06	1136.07	1126.1	1116.15	1106.21	1488.5
m1 = 0.191	1153.55	1148.55	1143.57	1133.61	1123.67	1113.74	1489.3
m1 = 0.222	1162.7	1157.71	1152.72	1142.77	1132.84	1122.92	1490.4
m1 = 0.25	1171.03	1166.04	1161.06	1151.11	1141.21	1131.31	1491.5

O=S(=O)([O-])C(F)(F)F.[Na+] [sodium trifluoromethanesulfonate] + C[S+](C)[O-]
Conditions	mass density, 293.15 K [kg/m3]	mass density, 298.15 K [kg/m3]	mass density, 303.15 K [kg/m3]	mass density, 313.15 K [kg/m3]	mass density, 323.15 K [kg/m3]	mass density, 333.15 K [kg/m3]	speed of sound, 298.15 K [m/s]
m1 = 0.02641	1102.59	1097.57	1092.55	1082.51	1072.47	1062.44	–
m1 = 0.0331	1103.2	1098.17	1093.52	1083.11	1073.08	1063.05	–
m1 = 0.04651	1104.41	1099.38	1094.37	1084.33	1074.31	1064.27	1482.7
m1 = 0.06041	1105.66	1100.64	1095.62	1085.59	1075.56	1065.53	1482.2
m1 = 0.0788	1107.34	1102.31	1097.29	1087.27	1077.24	1067.21	1481.6
m1 = 0.09603	1108.91	1103.88	1098.86	1088.84	1078.81	1068.79	1481
m1 = 0.1218	1111.26	1106.23	1101.22	1091.19	1081.17	1071.16	1480.1
m1 = 0.1568	1114.49	1109.45	1104.45	1094.42	1084.4	1074.39	1479
m1 = 0.1917	1117.71	1112.68	1107.66	1097.64	1087.62	1077.62	1477.6
m1 = 0.2205	1120.39	1115.36	1110.33	1100.32	1090.31	1080.3	1476.5
m1 = 0.2625	1124.33	1119.3	1114.27	1104.24	1094.22	1084.21	1475
m1 = 0.2925	–	–	–	–	–	–	1473.9

C[S+](C)[O-] [dimethyl sulfoxide] + [Ca+2].[O-][Cl+3]([O-])([O-])[O-].[O-][Cl+3]([O-])([O-])[O-]
m2 = 0
Conditions	mass density [kg/m3]
293.15 K	1100.21
298.15 K	1095.18
303.15 K	1090.16
313.15 K	1080.12
323.15 K	1070.08
333.15 K	1060.02

[Mg+2].[O-][Cl+3]([O-])([O-])[O-].[O-][Cl+3]([O-])([O-])[O-] [magnesium perchlorate] + CO
Conditions	mass density, 283.15 K [kg/m3]	mass density, 288.15 K [kg/m3]	mass density, 293.15 K [kg/m3]	mass density, 298.15 K [kg/m3]	mass density, 303.15 K [kg/m3]	mass density, 308.15 K [kg/m3]	mass density, 313.15 K [kg/m3]	speed of sound, 298.15 K [m/s]
m1 = 0.05219	809.719	805.077	800.41	795.738	791.047	786.336	781.598	1109.9
m1 = 0.06927	812.714	808.079	803.422	798.76	794.077	789.377	784.647	1112.6
m1 = 0.08495	815.487	810.862	806.214	801.554	796.877	792.189	787.47	1115.2
m1 = 0.1015	818.369	813.747	809.112	804.466	799.801	795.117	790.405	1117.5
m1 = 0.1173	821.156	816.545	811.914	807.277	802.62	797.944	793.24	1120
m1 = 0.1339	824.082	819.477	814.852	810.224	805.578	800.91	796.216	1122.5
m1 = 0.1663	829.827	825.238	820.63	816.008	811.382	806.732	802.054	1127.2
m1 = 0.1999	835.828	831.249	826.659	822.059	817.443	812.807	808.147	1132.5
m1 = 0.2312	841.439	836.878	832.301	827.71	823.106	818.493	813.847	1137.2
m1 = 0.2628	847.212	842.663	838.096	833.522	828.937	824.333	819.703	1142
m1 = 0.2917	852.468	847.932	843.38	838.819	834.243	829.645	825.025	1146.5
m1 = 0.3234	858.304	853.784	849.245	844.698	840.139	835.559	830.96	1151.8

C[S+](C)[O-] [dimethyl sulfoxide] + O=S(=O)([O-])C(F)(F)F.O=S(=O)([O-])C(F)(F)F.[Be+2]
m2 = 0
Conditions	mass density [kg/m3]
293.15 K	1100.21
298.15 K	1095.18
303.15 K	1090.16
313.15 K	1080.11
323.15 K	1070.07
333.15 K	1060.03

CO [methanol] + [Ba+2].[O-][Cl+3]([O-])([O-])[O-].[O-][Cl+3]([O-])([O-])[O-]
m2 = 0
Conditions	mass density [kg/m3]
283.15 K	800.555
288.15 K	795.877
293.15 K	791.18
298.15 K	786.468
303.15 K	781.739
308.15 K	776.993
313.15 K	772.219

CO [methanol] + O=S(=O)([O-])C(F)(F)F.[Na+]
m2 = 0
Conditions	mass density [kg/m3]
283.15 K	800.544
288.15 K	795.854
293.15 K	791.158
298.15 K	786.447
303.15 K	781.714
308.15 K	776.97
313.15 K	772.195

C[S+](C)[O-] [dimethyl sulfoxide] + O=S(=O)([O-])C(F)(F)F.[Na+]
m2 = 0
Conditions	mass density [kg/m3]
293.15 K	1100.21
298.15 K	1095.18
303.15 K	1090.16
313.15 K	1080.11
323.15 K	1090.07
333.15 K	1080.03

CO [methanol] + [Mg+2].[O-][Cl+3]([O-])([O-])[O-].[O-][Cl+3]([O-])([O-])[O-]
m2 = 0
Conditions	mass density [kg/m3]
283.15 K	800.542
288.15 K	795.864
293.15 K	791.17
298.15 K	786.46
303.15 K	781.735
308.15 K	776.985
313.15 K	772.206
